# From BindingDB's records for doi:10.1124/jpet.102.047118 (Juvantia Pharma, 2003)
# Values joined by “and” are separate entries in the source; they are usually repeats but may differ in a detail not shown here. Identical values can stand only once. Peptide text beside a SMILES is read from it.
# Legend:
# [1] = target: Neuropeptide FF receptor 2 (Homo sapiens, UniProt Q9Y5X5)
# [2] = target: T1, Prolactin-releasing peptide receptor (Homo sapiens, UniProt P49683)
# T1 sequence (P49683 whole entry): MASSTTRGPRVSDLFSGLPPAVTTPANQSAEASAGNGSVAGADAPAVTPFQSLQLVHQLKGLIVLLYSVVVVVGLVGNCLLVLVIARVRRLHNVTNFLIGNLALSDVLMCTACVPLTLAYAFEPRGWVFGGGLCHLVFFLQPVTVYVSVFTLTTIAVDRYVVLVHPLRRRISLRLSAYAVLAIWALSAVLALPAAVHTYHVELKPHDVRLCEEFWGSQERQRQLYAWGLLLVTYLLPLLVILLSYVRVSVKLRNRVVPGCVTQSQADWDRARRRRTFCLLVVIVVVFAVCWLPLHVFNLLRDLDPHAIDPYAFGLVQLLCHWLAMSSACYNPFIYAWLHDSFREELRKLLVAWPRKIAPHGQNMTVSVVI
# Chain of Neuropeptide FF receptor 2 (Q9Y5X5 whole entry): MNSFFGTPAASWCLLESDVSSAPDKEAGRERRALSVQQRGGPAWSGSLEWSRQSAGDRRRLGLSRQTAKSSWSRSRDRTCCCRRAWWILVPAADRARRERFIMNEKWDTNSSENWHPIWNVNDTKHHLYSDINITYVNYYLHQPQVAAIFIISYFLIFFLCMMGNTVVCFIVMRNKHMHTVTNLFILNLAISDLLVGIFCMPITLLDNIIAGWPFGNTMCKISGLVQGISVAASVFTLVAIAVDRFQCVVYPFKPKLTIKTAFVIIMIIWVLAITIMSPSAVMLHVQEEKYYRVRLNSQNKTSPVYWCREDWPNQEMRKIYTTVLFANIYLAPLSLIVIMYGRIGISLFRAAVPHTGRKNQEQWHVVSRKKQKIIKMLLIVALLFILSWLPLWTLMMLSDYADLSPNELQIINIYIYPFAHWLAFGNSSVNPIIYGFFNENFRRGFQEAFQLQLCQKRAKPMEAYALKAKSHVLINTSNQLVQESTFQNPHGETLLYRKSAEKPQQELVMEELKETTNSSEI
Ki [1] [nM],Ki [2] [nM],Ki,Structure (SMILES)
5.3,–,–,CC(C)C[C@H](NC(=O)[C@H](N)Cc1ccc(O)cc1)C(=O)N(C)[C@@H](Cc1ccccc1)C(=O)N[C@@H](CCC(N)=O)C(=O)N1CCC[C@H]1C(=O)N[C@@H](CCC(N)=O)C(=O)N[C@@H](CCCN=C(N)N)C(=O)N[C@@H](Cc1ccccc1)C(N)=O [CAS_132709] (HELM PEPTIDE1{[dY].L.[meF].Q.P.Q.R.F.[am]}$$$$V2.0)
23,1,2.3 nM,CC[C@H](C)[C@H](NC(=O)CNC(=O)[C@H](CCCNC(=N)N)NC(=O)CNC(=O)[C@@H](NC(=O)[C@H](Cc1ccc(O)cc1)NC(=O)[C@H](Cc1c[nH]c2ccccc12)NC(=O)[C@H](C)NC(=O)[C@@H]1CCCN1C(=O)[C@H](CC(N)=O)NC(=O)[C@@H](NC(=O)[C@H](CC(=O)O)NC(=O)[C@@H]1CCCN1C(=O)[C@@H](N)[C@@H](C)O)[C@@H](C)CC)[C@@H](C)O)C(=O)N[C@@H](CCCNC(=N)N)C(=O)N1CCC[C@H]1C(=O)N[C@H](C(=O)NCC(=O)N[C@@H](CCCNC(=N)N)C(=O)N[C@@H](Cc1ccccc1)C(N)=O)C(C)C [CAS_222988-10-5] (H-TPDINPAWYTGRGIRPVGRF-NH2)
–,–,2400 nM,CC(C)C[C@H](NC(=O)[C@@H](N)Cc1ccccc1)C(=O)N[C@@H](Cc1ccccc1)C(=O)N[C@@H](CCC(N)=O)C(=O)N1CCC[C@H]1C(=O)N[C@@H](CCC(N)=O)C(=O)N[C@@H](CCCN=C(N)N)C(=O)N[C@@H](Cc1ccccc1)C(=O)O [NSC_0]
32,47,–,CC[C@H](C)[C@H](NC(=O)CN)C(=O)N[C@@H](CCCN=C(N)N)C(=O)N1CCC[C@H]1C(=O)N[C@H](C(=O)NCC(=O)N[C@@H](CCCN=C(N)N)C(=O)N[C@@H](Cc1ccccc1)C(N)=O)C(C)C [NSC_0] (H-GIRPVGRF-NH2)
640,> 10000,390 nM,N=C(N)NCCCC(NC(=O)C(c1ccccc1)c1ccccc1)C(=O)NCc1ccc(O)cc1 (configuration not stated) [NSC_5311023]
15,> 10000,15 nM,CSCC[C@H](N)C(=O)N1CCC[C@H]1C(=O)N[C@@H](Cc1cnc[nH]1)C(=O)N[C@@H](CO)C(=O)N[C@@H](Cc1ccccc1)C(=O)N[C@@H](C)C(=O)N[C@@H](CC(N)=O)C(=O)N[C@@H](CC(C)C)C(=O)N1CCC[C@H]1C(=O)N[C@@H](CC(C)C)C(=O)N[C@@H](CCCNC(=N)N)C(=O)N[C@@H](Cc1ccccc1)C(N)=O [RFamide-related peptide 1] (H-MPHSFANLPLRF-NH2)
55,> 10000,19 nM,CC(C)C[C@H](NC(=O)[C@H](CC(N)=O)NC(=O)[C@@H]1CCCN1C(=O)[C@@H](N)C(C)C)C(=O)N1CCC[C@H]1C(=O)N[C@@H](CCC(N)=O)C(=O)N[C@@H](CCCNC(=N)N)C(=O)N[C@@H](Cc1ccccc1)C(N)=O [RFamide-related peptide 3]

Structure (SMILES),Ki [1] [nM],Ki [2] [nM],Ki
CC(C)C[C@H](NC(=O)[C@@H](N)Cc1ccccc1)C(=O)N[C@@H](Cc1ccccc1)C(=O)N[C@@H](CCC(N)=O)C(=O)N1CCC[C@H]1C(=O)N[C@@H](CCC(N)=O)C(=O)N[C@@H](CCCN=C(N)N)C(=O)N[C@@H](Cc1ccccc1)C(N)=O [CAS_235433-36-0],–,–,5.2 nM and 5.9 nM
